Data: US20250376441A1, “NOVEL COMPOUND AND PHARMACEUTICAL COMPOSITION COMPRISING SAME AS ACTIVE INGREDIENT” (Industry-Academic Cooperation Foundation, Yonsei University, priority 2017, published 2025)
Values joined by “and” are separate entries in the source; they are usually repeats but may differ in a detail not shown here. Equal entries are not always repeated.

Key:
L929 = assay: Cytotoxicity test (Cyto X cell viability assay kit), L929; assay type: cell-based; details: Mus musculus
Description: (§1) In order to identify whether the Preparation Example 6 according to the present invention is toxic to cells, a cytotoxicity test was conducted at the Korea Research Institute of Chemical Technology using the Cyto X™ cell viability assay kit ([…]).

Half-life test = assay: Half-life test
From the text: In order to identify whether the Preparation Example 6 according to the present invention can be orally administered, a half-life of the compound was checked. […] The results are illustrated in FIG. 18.

[1] = Lipophilicity (pKa, LogP); assay type: physicochemical; details: ACD/Labs T3 (pH-metrior)
Description: (§2) For a preliminary examination on clinical application of the Preparation Example 6, evaluation on lipophilicity and solubility was performed.

[2] = test system: amyloid-beta peptide1-42 degenerative neurological disease-induced mice; assay: Morris water maze test; assay type: in vivo, ICR mice
From the text: Six-week-old ICR mice (male) were purchased, and then examined for general health for 6 days while subjecting them to quarantine and acclimation under an environment of animal breeding room. Then, healthy individuals were selected and used for the experiment. Identification of each individual was made by marking the number of each individual on the tail using a permanent marker, and identification of a breeding box was made by attaching an individual identification card on which test number, test substance name, test item, date of acquisition, acclimation period, date of grouping, test period, sex/animal number, and person in charge are indicated.
(§3) In order to induce a degenerative neurological disease, the experimental animals of Preparatory Example 1 were anesthetized by inhalation with 2.5% isoflurane. Then, 1 μg of amyloid-beta peptide1-42, a degenerative neurological disease-inducing substance, was administered to the animals at both hippocampal positions (AP: −2.3, L: ±2.0, H: −1.5) using a stereotaxic apparatus. […] For the administration, 1 μl was injected, at a flow rate of 0.2 μl/min, with a […] gas-tight glass syringe (Hamilton, Reno, NV, USA) using a perfusion pump (Pump 22, Harvard Apparatus, South Natick, MA, USA). Subsequently, the syringe was allowed to stand for 5 minutes and then removed.
(§4) Then, a degenerative neurological disease was induced as in Preparation Example 2.
After induction of the degenerative neurological disease, the following test was conducted after a one-day recovery period passed.
A circular pool (diameter: 120 cm, height: 75 cm) was filled with water to a depth of 25±1 cm as in FIG. 4, and a 24 cm platform was prepared by hiding it 1 cm below the water surface. Space cues were installed on the four sides of the wall so that the aminals can identify locations, and skimmed milk powder was dissolved into water so that the animals cannot identify the platform with naked eyes. One day before the experiment, all the experimental animals were allowed to swim freely for 1 minute in a water bath having no platform, so that the animals can adapt to the swimming situation. After that, a test group was allowed to start, in any order, from two of the three quadrants except the quadrant where the platform was placed, and allowed to find the platform for 60 seconds. In a case where an animal finds the platform, the animal was allowed to stay thereon for 20 seconds. […] As soon as end of the position learning time, which is the 20-second staying time, the animal was allowed to start again from any quadrant, and the time and distance to reach the platform were measured. The procedure was performed four times a day, and all procedures were taken with a camera and analyzed with a video tracking system (Panlab, USA). Probe trials were made on the fifth day after the four-day experiment in toal was completed. The test group was allowed to swim freely for 90 seconds without the platform, thereby performing evaluation on whether the test group holds a memory of the platform location. The results are illustrated in FIGS. 5 to 7.

[3] = test system: acetylcholine in brain tissues; assay: Acetylcholine content in brain tissue; assay type: in vivo, ICR mice
Description: Subsequently, the syringe was allowed to stand for 5 minutes and then removed.
Measurement of acetylcholine in brain tissues was performed based on response of o-acyl derivatives with alkaline hydroxylamine. Specifically, 50 μl of brain tissue was taken and 50 μl of 1% hydroxylamine (Sigma, USA) was added and mixed. […] Finally, 500 μl of FeCl3 (10% in 0.1 N HCl) was added to measure an acetylcholine level (umole/mg protein), and then the absorbance was measured at 530 nm.

[4] = test system: amyloid-beta peptide1-42 degenerative neurological disease-induced mice; assay: Passive avoidance response test; assay type: in vivo, ICR mice; details: p<0.05 vs beta-amyloid group
Description: as §3, §4
Under a situation where a chamber with a bright light and a dark chamber were connected to each other via a small passage, 4 hours before the experiment, the experimental animals were placed in the chamber with a bright light. The experimental animals instinctively enter the dark chamber. However, after 4 hours of fear learning carried out by using an electric shock to give aversive stimulus, in a case where the experimental animals are placed in the chamber with a bright light, the time until the experimental animals enter the dark chamber was measured and quantified. The results are illustrated in FIG. 10.

[5] = Solubility by nephelometry; assay type: physicochemical; details: 5% DMSO in water, aqueous with cosolvent or surfactant or cyclodextrin, kinetic from dmso stock, DMSO 5%/water solvent
Description: as §2

[6] = test system: Salmonella typhimurium TA98; assay: Ames reverse mutation test, TA98
Description: For each strain, treatment with a single concentration of 200 μg/plate was performed in triplicate and mutation was checked.

[7] = target: AMP-activated protein kinase (AMPK); assay: AMPK kinase assay (luminescence, purified enzyme, ATP, substrate peptide); assay type: biochemical; details: AMPK activation
Description: In order to identify an effect of the Preparation Example 6 having the highest docking score in Experimental Example 1 on activity of the AMP-activated protein kinase (AMPK), a kinase assay was performed. The kinase assay was performed as follows. […] Then, purified AMP-activated protein kinase and ATP were allowed to react on a substrate peptide for the AMP-activated protein kinase, and degrees of luminescence thereof were shown as EC50 in Table 3 and FIG. 3.

HFL-1 = assay: Cytotoxicity test (Cyto X cell viability assay kit), HFL-1; assay type: cell-based; details: Homo sapiens, HFL1
Description: as §1

COc1ccc(OC)c(/C=C/C(=O)c2ccc(NS(=O)(=O)c3ccc(Cl)cc3)cc2)c1 [Preparation Example 6, (E)-4-Chloro-N-(4-(3-(2,5-dimethoxyphenyl)acryloyl)phenyl)benzenesulfonamide]
IC50 (L929): > 100 µM | half-life (Half-life test): ≥ 3 h | logP [1]: 4.75 | maximum platform escape latency ([2]; 1 mg): 136.45 (±26.02) seconds | minimum time to find the platform ([2]; 1 mg): 44.45 (±13.35) seconds | escape latency, fourth trial (short-term memory) ([2]; 1 mg, fourth day, p<0.05): 44.45 ± 13.35 s | escape latency, first trial (long-term memory) ([2]; 1 mg, fourth day, p<0.05 vs beta-amyloid group): 73.58 ± 9.14 s | maximum platform escape latency ([2]; 10 mg): 128.59 (±23.32) seconds | minimum time to find the platform ([2]; 10 mg): 40.64 (±10.94) seconds | escape latency, fourth trial (short-term memory) ([2]; 10 mg, first day, p<0.05): 76.14 ± 13.27 s | escape latency, fourth trial (short-term memory) ([2]; 10 mg, fourth day, p<0.05): 40.64 ± 10.94 s | escape latency, first trial (long-term memory) ([2]; 10 mg, fourth day, p<0.05 vs beta-amyloid group): 65.22 ± 13.65 s | escape latency, fourth trial (short-term memory) ([2]; 10 mg, second day, p<0.05): 59.87 ± 12.56 s | escape latency, first trial (long-term memory) ([2]; 10 mg, second day, p<0.05 vs beta-amyloid group): 95.05 ± 18.06 s | escape latency, fourth trial (short-term memory) ([2]; 10 mg, third day, p<0.05): 54.07 ± 14.38 s | escape latency, first trial (long-term memory) ([2]; 10 mg, third day, p<0.05 vs beta-amyloid group): 91.66 ± 12.68 s | maximum platform escape latency ([2]; 100 mg): 125.66 (±19.35) seconds | minimum time to find the platform ([2]; 100 mg): 36.48 (±9.54) seconds | escape latency, fourth trial (short-term memory) ([2]; 100 mg, first day, p<0.05): 73.79 ± 12.15 s | escape latency, fourth trial (short-term memory) ([2]; 100 mg, fourth day, p<0.01): 36.48 ± 9.54 s | escape latency, first trial (long-term memory) ([2]; 100 mg, fourth day, p<0.05 vs beta-amyloid group): 64.7 ± 12.63 s | escape latency, first trial (long-term memory) ([2]; 100 mg, second day, p<0.01 vs beta-amyloid group): 91.66 ± 12.68 s | escape latency, fourth trial (short-term memory) ([2]; 100 mg, second day, p<0.05): 59.62 ± 8.22 s | escape latency, fourth trial (short-term memory) ([2]; 100 mg, third day, p<0.01): 47.74 ± 10.81 s | escape latency, first trial (long-term memory) ([2]; 100 mg, third day, p<0.05 vs beta-amyloid group): 83.41 ± 11.46 s | acetylcholine content ([3]; 1 mg, p<0.05): 22.31±1.80 μmole/mg protein | acetylcholine content ([3]; 10 mg, p<0.01): 23.08±1.54 μmole/mg protein | acetylcholine content ([3]; 100 mg, p<0.01): 22.79±1.45 μmole/mg protein | staying time in the chamber with a bright light ([4]; 10 mg): 156.87 ± 50.95 s | staying time in the chamber with a bright light ([4]; 100 mg): 153.48 ± 34.71 s | solubility [5]: 206 µM and 94.4 µg/mL | Ames reverse mutation test outcome ([6]; TA98, 200 μg/plate, with or without S9): negative | Reverse mutation [factor] with S-9 mix ([6]; TA98, with S-9, factor versus control): [1.5] | Reverse mutation/dish (mean ± SD) with S-9 mix ([6]; TA98, with S-9, Preparation Example 6 at 200 μg/plate, Benzo(a)pyrene concentration 2): 35 ± 2 | Reverse mutation [factor] w/o S-9 mix ([6]; TA98, without S-9, factor versus control): [1.1] | Reverse mutation/dish (mean ± SD) w/o S-9 mix ([6]; TA98, without S-9, Preparation Example 6 at 200 μg/plate, 2-Nitrofluorene concentration 2): 20 ± 4 | EC50 [7]: 0.637 µM | IC50 (HFL-1): > 100 µM
